Measured values reported in patent US20090306012A1, “THERAPEUTIC PROTOCOLS” (priority 2001, published 2009).

Key:
[1] = system: peripheral blood neutrophils; experiment: In vivo cytotoxicity (II): daily blood neutrophil and differential counts; parameters: species or system Male F1 mice (C57×CBA)
Protocol: For each treatment dosage a total of 6 groups (n=8 mice per group) were used. Data from each treatment group were established by staggering results of groups of 6 (counted individually), sampling each group every 4 days so that a daily assessment could be established. Each group was treated as described above, prior to the drug administration. -Throughout this study, blood was collected and analyzed for neutrophil content as outlined in previous examples.
Again, to normalize the data for comparison between treatments, neutropenia was expressed as a percentage of neutrophils on day 0 (before drug administration).

cardiac myocytes [2] = experiment: In vivo cardiotoxicity (I): cardiac damage by electron microscopy; parameters: species or system Adult female Wistar rats; details: chronic exposure, rats
Text: (§1) Group 6 received no treatment.
(§2) Immediately after animal sacrifice, a traverse section of the intraventricular septum was dissected from the heart and fixed in 2% glutaraldehyde, 2% paraformaldehyde and 4% glucose in phosphate buffer. Standard post-buffering, osmication and processing were followed. Specimens were examined with a Philip's electron microscope and the frequency and severity of cardiac damage in the myocardial cells were graded according to the method according to Billingham et al. (Can. Treat. Rep. 62: 865-872, 1978). In brief, blocks were selected that consisted predominantly of transected cardiac myocytes.

neutrophils = experiment: Phase I clinical trial of doxorubicin + HA (HyDox) in advanced cancer: toxicity, neutrophil counts; assay type: in vivo, patients
Text: The eligibility criteria, for inclusion in this study, were as follows: Patients must have advanced or metastatic cancer, histologically or cytologically confirmed. Patients were not to have had previous chemotherapy or were to have had no more than one prior chemotherapy regime and were not to have had prior anthracyclines. Patients were to be aged between 18 and 75 years with ambulatory performance status and adequate bone marrow, liver and renal function.
The treatment plan provided that, in the first chemotherapy cycle, patients be randomized to receive Dox alone or Dox plus HA. The converse applied in the second cycle. In the subsequent four cycles, patients received Dox plus HA. This allowed each patient to act as his/her own control in the toxicity analysis in the first two cycles, reducing the possibility of inter-patient variability affecting result interpretation.
Injectable sodium chloride was obtained from Baxter Healthcare, Sydney, Australia, as supplied as a 500 ml infusion bag.
Therefore, the initial dose level was 30 mg/m^2, the next 45 mg/m^2 and the next 60 mg/m^2.

[3] = In vivo cytotoxicity (I): metabolic stress (daily body weight); parameters: species or system Male F1 mice (C57×CBA)
Text: All treatment groups were monitored for weight loss on a daily basis. At the end of the study the data were expressed as percentage of original body mass and graphed in this maimer.

cardiac myocytes [4] = experiment: In vivo cardiotoxicity (II): myocardial pathology by transmission electron microscopy (vacuolated myocytes); parameters: species or system Adult female spontaneously hypertensive rats; details: cumulative Dox 13 mg/kg, 12 weeks
Text: as §2
(§3) Group 4 received no treatment.
For analyses, tissue processing and assays of antioxidant enzymes and GSH, were carried out as described in Example 2. Analysis of cardiac damage by transmission electron microscopy was also carried out as described in Example 2.
To minimize anatomical variation across treatment groups, samples of the lateral border of the left ventricle were processed for EM analysis.

cardiac troponin T = experiment: In vivo cardiotoxicity (I): serum levels of cardiac troponin-T (cTnT); parameters: species or system Adult female Wistar rats; details: weekly iv […] Dox, rats
Protocol: as §1
Prior to the commencement of the study, blood (500 μL) was collected from each rat via a tail vein bleed procedure. Blood was collected in 1.5 mL Capiject tube and allowed to clot for a minimum of 30 minutes. […] After pre-bleeds, each experimental animal was injected with respective drug combination or control treatment and 24 hours after administration the rats were tail-bled and processed as described above. Thereafter, animals were injected with drug combinations at weekly intervals for 12 weeks, and blood was collected 24 hours after treatment.

[5] = system: reduced glutathione (GSH); experiment: In vivo cardiotoxicity (II): tissue reduced glutathione (GSH) level; parameters: species or system Adult female spontaneously hypertensive rats; details: chronic exposure, vs control values
Protocol: For the GSH assay, 0.25 mL of 25% w/v metaphosphoric acid was added to the 1 mL of the original crude homogenate, mixed thoroughly and incubated on ice for 15 minutes. The protein precipitate was pelleted by centrifugation at 10,000 g for 10 minutes at 4° C. The clear supernatant was transferred to a clean tube and either stored at −70° C. for no longer than three days or GSH levels were directly determined. The level of GSH was determined using a fluorometric assay using 0-phthalaldehyde as described by Cohn & Lyle (Anal. Biochem. 14(3): 434-440, 1966).
as §3

[6] = In vivo cytotoxicity (I): general toxicity (survival); details: 24 mg/kg Dox, single iv bolus, 14 days
Protocol: Male F1 mice (C57×CBA; 11-13 weeks old), used for in vivo studies, were obtained from The Animal Central Division (Monash University, Victoria, Australia). The mice were distributed at random into each treatment group (6 per treatment group) and allowed to acclimatize for 2-3 weeks before commencing the study. […] Before a treatment group was started, blood (200 μL) from each experimental animal was collected by retroorbital sinus bleed and immediately transferred to tube containing EDTA, gently flick mixed and stored on ice until analysis. This was taken as day 0, after which the mice were given a single bolus intravenous injection via tail vein with corresponding control, drug, or HA/drug combinations. The mice were then sequentially bled on days 1, 4, 7, 10 and 14 by the aforementioned method. All blood samples were analyzed for white blood cell composition in an Adiva 120 Differential Coulter Counter (Bayer Diagnostics, USA). Throughout the duration of the study, mouse mass, food intake and general activity levels were recorded on a daily basis. On day 14, mice were sacrificed by cervical dislocation and the heart, lungs, liver, spleen, kidneys, stomach, intestines and testicles removed and immediately fixed in 10% v/v formalin in phosphate buffered saline.

Glutathione peroxidase = details: chronic exposure, vs control groups
Protocol: One week after the last injection, the rats were killed by decapitation and internal organs were fixed in 10% v/v formalin in phosphate buffered saline. Prior to tissue fixation, portions of the kidney, liver, and skeletal muscle and heart were quickly removed and placed in tubes on ice. The tissue was either used immediately or stored at −80° C. until assayed. Each sample was minced into small pieces, washed vigorously in two changes of ice cold 0.25 M sucrose containing 1 mM EDTA, then washed in 50 mM potassium phosphate buffer pH 7.8 containing 0.1 mM EDTA prior to recording the tissues ‘wet’ weight. The tissue was then resuspended in 2 mL of ice-phosphate-EDTA buffer and homogenized on ice for three 5-second bursts over 5 minutes using an Ultraturrax homogenizer. The fine suspension was made up to a final volume of 4 mL with the phosphate-EDTA buffer and used for the enzyme and GSH assays described below.
From the 4 mL tissue homogenate, 1 mL was transferred to a clean 1.5 mL Eppendorf and stored on ice. […]
SOD activity was determined measuring the Cytochrome c by the method according to McCord & Fridovich (J. Biol. Chem. 244(22): 6056-6063, 1969). GP activity was assessed by an indirect coupled assay (Paglia & Valentine, J. Lab. Clin. Med. 70(1): 158-169, 1967). […]
For control purposes, antioxidant loading from hepatic, renal and skeletal muscle extracts was also determined.

## COc1cccc2c1C(=O)c1c(O)c3c(c(O)c1C2=O)C[C@@](O)(C(=O)CO)C[C@@H]3O[C@H]1C[C@H](N)[C@H](O)[C@H](C)O1 [Dox, doxorubicin]
[1]; 12 mg/kg
  Duration of nadir neutropenia: 2 days
  Onset of nadir neutropenia: 4 days
[1]; 16 mg/kg
  Duration of nadir neutropenia before recovery: > 48 h
Cardiac myocytes [2]
  Appearance of myocytes in the heart (electron micrographs): vacuolated myocytes
neutrophils; Patient 1, Cycle 2, 30 mg/m2, day 1
  Neutrophils as % of Day 1: 100%
neutrophils; Patient 1, Cycle 2, 30 mg/m2, day 6
  Neutrophils as % of Day 1: 100%
neutrophils; Patient 1, Cycle 2, 30 mg/m2, day 8
  Neutrophils as % of Day 1: 109%
neutrophils; Patient 1, Cycle 2, 30 mg/m2, day 10
  Neutrophils as % of Day 1: 109%
neutrophils; Patient 1, Cycle 2, 30 mg/m2, day 13
  Neutrophils as % of Day 1: 83%
neutrophils; Patient 1, Cycle 2, 30 mg/m2, day 15
  Neutrophils as % of Day 1: 57%
neutrophils; Patient 1, Cycle 2, 30 mg/m2, day 20
  Neutrophils as % of Day 1: 57%
neutrophils; Patient 1, Cycle 2, 30 mg/m2, day 21
  Neutrophils as % of Day 1: 74%
neutrophils; Patient 1, Cycle 3, 30 mg/m2, day 1
  Neutrophils as % of Day 1: 100%
neutrophils; Patient 2, Cycle 1, 30 mg/m2, day 1
  Neutrophils as % of Day 1: 100%
neutrophils; Patient 2, Cycle 1, 30 mg/m2, day 4
  Neutrophils as % of Day 1: 120%
neutrophils; Patient 2, Cycle 1, 30 mg/m2, day 8
  Neutrophils as % of Day 1: 132%
neutrophils; Patient 2, Cycle 1, 30 mg/m2, day 10
  Neutrophils as % of Day 1: 78%
neutrophils; Patient 2, Cycle 1, 30 mg/m2, day 15
  Neutrophils as % of Day 1: 54%
neutrophils; Patient 2, Cycle 1, 30 mg/m2, day 17
  Neutrophils as % of Day 1: 40%
neutrophils; Patient 2, Cycle 1, 30 mg/m2, day 21
  Neutrophils as % of Day 1: 86%
neutrophils; Patient 2, Cycle 3, 30 mg/m2, day 1
  Neutrophils as % of Day 1: 100%
neutrophils; Patient 5, Cycle 1, 30 mg/m2, day 1
  Neutrophils as % of Day 1: 100%
neutrophils; Patient 5, Cycle 1, 30 mg/m2, day 4
  Neutrophils as % of Day 1: 78%
neutrophils; Patient 5, Cycle 1, 30 mg/m2, day 7
  Neutrophils as % of Day 1: 70%
neutrophils; Patient 5, Cycle 1, 30 mg/m2, day 9
  Neutrophils as % of Day 1: 73%
neutrophils; Patient 5, Cycle 1, 30 mg/m2, day 12
  Neutrophils as % of Day 1: 49%
neutrophils; Patient 5, Cycle 1, 30 mg/m2, day 14
  Neutrophils as % of Day 1: 38%
neutrophils; Patient 5, Cycle 1, 30 mg/m2, day 16
  Neutrophils as % of Day 1: 32%
neutrophils; Patient 5, Cycle 1, 30 mg/m2, day 19
  Neutrophils as % of Day 1: 38%
neutrophils; Patient 5, Cycle 1, 30 mg/m2, day 21
  Neutrophils as % of Day 1: 59%
neutrophils; Patient 5, Cycle 3, 30 mg/m2, day 1
  Neutrophils as % of Day 1: 100%
neutrophils; Patient 7, Cycle 1, 45 mg/m2, day 1
  Neutrophils as % of Day 1: 100%
neutrophils; Patient 7, Cycle 1, 45 mg/m2, day 4
  Neutrophils as % of Day 1: 46%
neutrophils; Patient 7, Cycle 1, 45 mg/m2, day 8
  Neutrophils as % of Day 1: 56%
neutrophils; Patient 7, Cycle 1, 45 mg/m2, day 10
  Neutrophils as % of Day 1: 41%
neutrophils; Patient 7, Cycle 1, 45 mg/m2, day 12
  Neutrophils as % of Day 1: 35%
neutrophils; Patient 7, Cycle 1, 45 mg/m2, day 15
  Neutrophils as % of Day 1: 19%
neutrophils; Patient 7, Cycle 1, 45 mg/m2, day 17
  Neutrophils as % of Day 1: 14%
neutrophils; Patient 7, Cycle 1, 45 mg/m2, day 19
  Neutrophils as % of Day 1: 21%
neutrophils; Patient 7, Cycle 3, 45 mg/m2, day 1
  Neutrophils as % of Day 1: 100%
neutrophils; Patient 8, Cycle 2, 45 mg/m2, day 1
  Neutrophils as % of Day 1: 100%
neutrophils; Patient 8, Cycle 2, 45 mg/m2, day 4
  Neutrophils as % of Day 1: 84%
neutrophils; Patient 8, Cycle 2, 45 mg/m2, day 8
  Neutrophils as % of Day 1: 85%
neutrophils; Patient 8, Cycle 2, 45 mg/m2, day 10
  Neutrophils as % of Day 1: 39%
neutrophils; Patient 8, Cycle 2, 45 mg/m2, day 12
  Neutrophils as % of Day 1: 81%
neutrophils; Patient 8, Cycle 2, 45 mg/m2, day 15
  Neutrophils as % of Day 1: 62%
neutrophils; Patient 10, Cycle 1, 60 mg/m2, day 1
  Neutrophils as % of Day 1: 100%
neutrophils; Patient 10, Cycle 1, 60 mg/m2, day 4
  Neutrophils as % of Day 1: 93%
neutrophils; Patient 10, Cycle 1, 60 mg/m2, day 6
  Neutrophils as % of Day 1: 63%
neutrophils; Patient 10, Cycle 1, 60 mg/m2, day 8
  Neutrophils as % of Day 1: 33%
neutrophils; Patient 10, Cycle 1, 60 mg/m2, day 10
  Neutrophils as % of Day 1: 4%
neutrophils; Patient 10, Cycle 1, 60 mg/m2, day 13
  Neutrophils as % of Day 1: 3%
neutrophils; Patient 10, Cycle 1, 60 mg/m2, day 17
  Neutrophils as % of Day 1: 20%
neutrophils; Patient 10, Cycle 1, 60 mg/m2, day 20
  Neutrophils as % of Day 1: 47%
neutrophils; Patient 12, Cycle 1, 60 mg/m2, day 1
  Neutrophils as % of Day 1: 100%
neutrophils; Patient 12, Cycle 1, 60 mg/m2, day 4
  Neutrophils as % of Day 1: 124%
neutrophils; Patient 12, Cycle 1, 60 mg/m2, day 7
  Neutrophils as % of Day 1: 95%
[3]; 9 mg/kg Dox
  Maximum weight loss, % of original body mass: ~−10%
[3]; 12 mg/kg Dox, by day 11
  Original body mass lost: ~13%
[3]; 24 mg/kg dosage group, by day 7
  Original weight lost: ~25%
Cardiac myocytes [4]
  Myocyte vacuolation compared with the HyDox group: almost two-three-fold greater
Cardiac troponin T
  Cumulative dose of Dox at which cardiotoxicity (serum troponin T release) begins: 9 mg/kg
[5]
  Level of hepatic GSH: remained unchanged
[6]
  Mice that survived until the end of the study: 2 mice
Glutathione peroxidase
  Cardiac glutathione peroxidase levels: equally increased
